# According to patent US7807368B2, “Cyclin-dependent kinase inhibitors as targets for opiod growth factor treatment” (priority 2006, dated 2010):
# “Also recorded” adds a separate entry of the source.
# Key:
# Cdk2 kinase activity = experiment: Immunoprecipitation and H1 kinase assay (Cdk2 kinase activity) in BxPC-3 cells; format: cell-based, human
# Description: (§1) To quantify expression levels or kinase activity, the optical density of each band was determined by densitometry and analyzed by QuickOne (Bio-Rad Laboratories). Each value was normalized to β-actin from the same blot. To report the changes due to OGF treatment, we calculated the fold increase by dividing the normalized value from the OGF treated samples by the normalized value of control samples at each time point; thus, increases due to OGF have values greater than one, and decreases due to OGF have values less than one. For all Western blot analyses, 3 or more independent experiments were performed.
# To immunoprecipitate protein complexes, cell extracts were prepared as follows: 2×10^6 cells per sample were rinsed in cold PBS followed by lysis in 200 μl immunoprecipitation buffer (1% NP-40, 10 mM HEPES (pH 7.5), 200 mM NaCl, 5 mM EDTA, 50 mM NaF, 0.2 mM sodium orthovanidate, 1 mM phenylmethyl sulfonyl fluoride, 2 mM dithiothreitol), 1× Halt™ protease inhibitorcocktail (Pierce, Rockford, Ill.)). For each immunoprecipitation reaction mixture, a total of 500 μg of protein extract was used. To each sample, 50 μl of protein A beads (Santa Cruz Biotechnology) were added and incubated at 40° C. for 30 min with rotation. Beads were removed by centrifugation at 14000 rpm for 15 s. The lysates were then subjected to immunoprecipitation using 10 μl of polyclonal antibody against Cdk2 and incubated at 40° C. for 1.5 hours with rotation, followed by addition of 20 μl of protein A beads as the immune complex binding agent.
# Samples were further incubated at 40 C for 1 hour with rotation. Beads were pelleted by centrifugation at 14000 rpm for 15 s, washed three times with 500 μl ice-cold immunoprecipitation wash buffer (1% NP-40, 50 mM HEPES, 150 mM NaCl, 1 mM EDTA, 1 mM dithiothreitol), and followed by two washes with ice-cold H1 kinase buffer (50 mM HEPES (pH 7.5), 10 mM MgCl2, 10 mM MnCl2, 1 mM dithiothreitol). Immunoprecipitates were incubated with 10 μCi γ^32P-ATP, and 1 μg of histone H1 (Roche) as the substrate for Cdk2. After incubation for 30 min at 30° C., with occasional mixing, the reaction was stopped by the addition of 2× sample loading buffer (Santa Cruz Biotechnology). Proteins were separated by a 12% SDS-PAGE gel, and the Cdk2 kinase activity pattern was visualized by autoradiography of phosphorylated H1.
# p21 = experiment: Western blot of p21, p27 and Cdk2 in BxPC-3 cells; format: cell-based, human
# Description: Synchronized cells (2×10^6) from each treatment were solubilized in 200 μl RIPA buffer (1×PBS, 10 μM IGEPAL, 1 mg/ml SDS, 5 mg/ml deoxycholic acid), containing protease and phosphatase inhibitors (2 μg/ml aprotinin, 3 mg/ml phenylmethyl sulfonyl fluoride, 1 mM sodium orthovanidate, 1 μM okadaic acid). Total protein concentrations were measured using the DC protein assay kit (Bio-Rad Laboratories, Hercules, Calif.). Equal amounts of protein (40 μg) were subjected to 10% SDS-PAGE followed by transfer of proteins onto polyvinylidene difluoride (Millipore, Billerica, Mass.) using standard protocols.
# The following antibodies were purchased from commercial sources: phospho-Rb (Ser795), phospho-Rb (Ser807/811) (Cell Signaling Technology, Beverly, Mass.); Cdk2, p57 (Santa Cruz Biotechnology, Santa Cruz, Calif.); p21, p27, total Rb (BD PharMingen, San Diego, Calif.); β-actin (Clone AC-15, Sigma-Aldrich).
# Membranes were probed with secondary anti-rabbit or anti-mouse horseradish peroxidase-conjugated antibodies (GE Healthcare-Amersham Biosciences, Piscataway, N.J.), and developed using a chemiluminescence Western blotting detection system.
# To determine equal loading of total protein samples, blots were re-probed with monoclonal antibody against β-actin at a dilution of 1:2000. If necessary, membranes were processed in stripping buffer (62.5 mM Tris-HCI and 100 mM β-mercaptoethanol/2% SDS, pH 6.7) at 50° C. before being re-probed.
# as §1
# The p21-targeted siRNAs were obtained from Santa Cruz Biotechnology, and negative control siRNAs were purchased from Ambion (Ambion, Inc., Austin, Tex.). For transfection, 2×10^5 cells per well were seeded in 6-well plates containing 1 ml of media without antibiotics. For each well, 1 μl of siRNA stock (20 μM) was mixed with 175 μl of serum-free media. Two μl of Oligofectamine reagent (Invitrogen, Carlsbad, Calif.) was added to prewashed cells in each well, making the final concentration for siRNA approximately 20 nM. Cells were incubated for 4 hours at 37° C. prior to the addition of OGF. Eighteen hours later, 1 ml fresh complete media with or without OGF was added to the cultures; media and OGF were replaced daily. At the indicated time points, cells were collected for growth curves or Western blotting.
substance,measurement,setting,value
[Met^5]-enkephalin [OGF],Cdk2 kinase activity vs control cells at each respective time point,"Cdk2 kinase activity; OGF for 15, 18 or 21 hours (FIG. 5)",significantly reduced
same,decrease in Cdk2 kinase activity compared to control,Cdk2 kinase activity; OGF for 15 hours,78%
same,decrease in Cdk2 kinase activity compared to control,Cdk2 kinase activity; OGF for 18 hours,46%
same,decrease in Cdk2 kinase activity compared to control,Cdk2 kinase activity; OGF for 21 hours,82%
same,expression of the cell cycle inhibitor p27,p21; OGF treatment,no significant effect
same,expression of Cdk2 protein,p21; following OGF exposure,did not change
same,p21 expression,"p21; synchronized BxPC-3 cells, 9 hours, 10^-6 M OGF, 10^-5 M naloxone",significantly upregulated; also recorded: significantly elevated
